Measurements as given in EP4610269A1, “UROKINASE PLASMINOGEN ACTIVATOR SURFACE RECEPTOR (UPAR) LIGANDS FOR DIAGNOSTIC OR THERAPEUTIC USE” (3B Pharmaceuticals GmbH, priority 2024, dated 2025).
Where a SMILES comes first, the peptide text is derived from it. Bridges are numbered along the chain shown (N, C = ends). [ ]: non-standard residue; d: D form. The star is where a group is joined. X3 = NC(=O)[C@H](CCCCNC(=O)CN1CCN(CC(=O)O)CCN(CC(=O)O)CCN(CC(=O)O)CC1)NC(=O)CCC(=O)NCCCOCCOCCOCCCN*; DOTA = O=C(O)CN1CCN(CC(=O)O)CCN(CC(=O)*)CCN(CC(=O)O)CC1; Phe(4-guanidino) = N=C(N)Nc1ccc(C[C@H](N)C(=O)O)cc1; Lys(Me3) = C[N+](C)(C)CCCC[C@H](N)C(=O)O; 2Nal = N[C@@H](Cc1ccc2ccccc2c1)C(=O)O; Hyp = O=C(O)[C@@H]1C[C@@H](O)CN1; Pentanoyl(4-Me) = CC(C)CCC(=O)*; Cit = NC(=O)NCCC[C@H](N)C(=O)O; αMeL = CC(C)C[C@](C)(N)C(=O)O; Butoxycarbonyl = CCCCOC(=O)*; Api = NC1(C(=O)O)CCNCC1; Nva = CCC[C@H](N)C(=O)O; Hexanoyl = CCCCCC(=O)*; Pentanoyl = CCCCC(=O)*

Experiments:
[1] = biological target: T1, uPAR-expressing HEC-265 human endometrial adenocarcinoma cells (Homo sapiens, UniProt Q03405); test: Competitive FACS binding assay; conditions: pIC50 category of FACS binding
T1 construct: Cell surface uPAR-expressing HEC-265 human endometrial adenocarcinoma cells; host or cells: HEC-265
T1 sequence (Q03405 23-335): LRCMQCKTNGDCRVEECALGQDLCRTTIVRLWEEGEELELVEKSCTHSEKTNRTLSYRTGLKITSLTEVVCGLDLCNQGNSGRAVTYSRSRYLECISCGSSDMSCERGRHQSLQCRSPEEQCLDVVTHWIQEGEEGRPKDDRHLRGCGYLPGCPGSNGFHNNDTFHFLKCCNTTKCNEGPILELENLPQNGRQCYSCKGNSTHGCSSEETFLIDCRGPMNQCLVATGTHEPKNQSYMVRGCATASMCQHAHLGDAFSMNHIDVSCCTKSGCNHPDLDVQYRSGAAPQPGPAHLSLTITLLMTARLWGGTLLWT
Description: In order to determine binding of compounds according to the present invention to uPAR-expressing cells, a competitive FACS binding assay was established.
Cell surface uPAR-expressing HEC-265 human endometrial adenocarcinoma cells (Japanese Collection of Research Bioresources, #JCRB1142) were cultured in MEM Eagle with stable glutamine (Pan Biotech, #P04-09500) including 15% fetal bovine serum (Pan Biotech, #P30-3306) and 100 U/ml penicillin and 100 µg/mL streptomycin (Pan Biotech, #P06-07100). Cells were detached with Cell Dissociation Buffer (Thermo Scientific, #13151014) and washed in FACS buffer (PBS (Pan Biotech, #P04-36500) including 1% BSA (SeraCare, #AP-4510-80). Cells were diluted in FACS buffer to a final concentration of 500.000 cells per ml and 200 µl of the cell suspension are transferred to a u-shaped non-binding 96-well plate (Greiner Bio-One, #650901).
For IC50 determination, cells were incubated with 10 nM Bio--Ttds--Ttds--Ttds--Ttds-D-Cha-FsrYLWS-NH2) in the presence of increasing concentrations of non-labeled test compounds at 4°C for 1 hour. Cells were washed twice in FACS buffer. An additional incubation step with 1 µg/mL APC-Streptavidin (Miltenyi; #130-106-791) in 50 µL FACS buffer for 30 minutes on ice was performed followed by two washes with FACS buffer. Cells were resuspended in 200 µl FACS buffer and analyzed in an Attune NxT flow cytometer. Median fluorescence intensities (APC channel) were calculated by Attune NxT software and plotted against peptide concentrations. Four parameter logistic (4PL) curve fitting and pIC50 calculations were performed using ActivityBase software.

[2] = biological target: T2, human uPAR (uPAR-Fc) (Homo sapiens, UniProt Q03405); test: Surface plasmon resonance (SPR) assay, single cycle kinetics; assay type: binding; conditions: pKD category for uPAR SPR activity assay; uPAR-Fc on Protein A-Chip, 25°C; read-out: pKD CAT (converted)
T2 construct: comprising amino acids Leu23-Arg303 according to UniProt entry Q03405.1; purchased R&D Systems 10378-UK-100
T2 sequence (Q03405 23-303): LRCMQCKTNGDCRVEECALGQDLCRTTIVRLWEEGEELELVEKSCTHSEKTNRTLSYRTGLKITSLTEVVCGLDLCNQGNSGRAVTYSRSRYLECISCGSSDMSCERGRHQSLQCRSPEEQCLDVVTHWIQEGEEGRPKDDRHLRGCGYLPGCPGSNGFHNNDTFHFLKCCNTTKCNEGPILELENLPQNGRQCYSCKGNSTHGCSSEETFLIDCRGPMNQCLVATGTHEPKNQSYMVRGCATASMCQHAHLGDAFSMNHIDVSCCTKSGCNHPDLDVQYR
Description: Surface plasmon resonance (SPR) is an optical technique used to measure molecular interactions in real time. SPR occur when plane-polarized light hits a metal film under total internal reflection conditions. SPR signal is directly dependent on the refractive index of the medium on the sensor chip. In an SPR experiment, one molecule (i.e. uPAR) is immobilized on a sensor chip and binding to a second molecule (i.e. test compounds) is measured under flow. The binding of the compound on the surface changes the refractive index. In responses the reflection angle changes as compounds bind and dissociate on the immobilized protein on the surface. This response is measured in resonance units (RU). The RUs are proportional to the number of molecules bound to the surface. […] Kinetic binding constants and equilibrium binding constants can be derived from the sensorgrams.
Surface plasmon resonance (SPR) studies were performed using a Biacore™ T200 or S200 SPR system (Cytiva, formerly GE Life Sciences) to assess binding of compounds to recombinant uPAR protein.
In this example recombinant protein comprising the extracellular domains of human uPAR (uPAR-Fc, R&D Systems, CAT 10378-UK-100, comprising amino acids Leu23-Arg303 according to UniProt entry Q03405.1 and Fc region of human IgG1 at the C-terminus) was immobilized on a Protein A-Chip (Cytiva, CAT 29127555) according to the supplier's instructions. uPAR-Fc was diluted in Running Buffer (10 mM HEPES, 150 mM NaCl, 50 µM EDTA, 0.1% DMSO, 0.05% Tween-20, pH 7.4) to a final concentration of 100 nM and then flushed over the Protein A-Chip to immobilized ~2000 RUs.
Stock solutions of test compounds were prepared by dissolving each compound in DMSO. DMSO stock solution were diluted 1: 1000 in Running Buffer without DMSO. Further sequential dilutions were made with Running Buffer containing 0.1% DMSO. SPR binding analyses were performed in Single Cycle Kinetic (SCK) mode at 25°C. Flow cell without immobilized uPAR-Fc served as reference flow cell. The chip was regenerated with 10 mM Glycine, pH 1,5 to remove the uPAR-Fc from the chip surface after each SCK run. After every three SCK measurements, a blank run with Running Buffer instead of test compound was included to correct for baseline drifts (double reference substraction method). Table 11: SPR protocol steps for SCK with uPAR-Fc immobilized on a Protein A-Chip.
For each test compound, SPR raw data sensorgrams were recorded using the Biacore™ T200 or S200 control software. Sensorgrams were processed and analyzed with the Biacore™ Insight Evaluation software. […] The reference subtracted sensorgram for each test compound was further corrected for baseline drift by subtracting the sensorgram of a reference subtracted blank run (Running Buffer only). The dissociation constant (KD) was calculated from the double reference subtracted sensorgrams using the 1:1 Langmuir binding model. The pKD value (negative decadic logarithm of dissociation constant) was calculated using Microsoft Excel.

Structure (SMILES) | IC50 [1] | Kd [2]
CC[C@H](C)[C@@H]1NC(=O)[C@H](CCCCNC(=O)CN2CCN(CC(=O)O)CCN(CC(=O)O)CCN(CC(=O)O)CC2)NC(=O)[C@@H]2CCCN2C(=O)[C@H](Cc2ccccc2)NC(=O)[C@H](Cc2ccc(O)cc2)NC(=O)[C@H](CCC(N)=O)NC(=O)[C@H](CCCNC(N)=O)NC(=O)[C@@H](NC(=O)CCC(C)C)CSSC[C@@H](C(N)=O)NC(=O)[C@H](CC(C)C)NC1=O [UPAR-145, iHex-[Cys-Cit-Gln-Tyr-Phe-Pro-Lys(DOTA)-Ile-Leu-Cys]-NH2] ({Pentanoyl(4-Me)}-C[Cit]QYFPK(DOTA)ILC-NH2; disulfide 1-10) | ≤ 10 nM | < 1.58 nM
CCCCC(=O)N[C@H]1CSSC[C@@H](C(=O)NCC)NC(=O)[C@H](CCC)NC(=O)[C@H]([C@@H](C)CC)NC(=O)[C@@H]2C[C@@H](O)CN2C(=O)[C@@H]2CCCN2C(=O)[C@H](Cc2ccccc2)NC(=O)[C@H](Cc2ccc(O)cc2)NC(=O)[C@H](CCC(N)=O)NC(=O)[C@H](CCCNC(N)=O)NC1=O [UPAR-146, Pent-[Cys-Cit-Gln-Tyr-Phe-Pro-Hyp-Ile-Nva-Cys]-NHEt] (Pentanoyl-C[Cit]QYFP[Hyp]I[Nva]C-NHEt; disulfide 1-10) | 12.6 to 31.6 nM | 1.58 to 10 nM
CC[C@H](C)[C@@H]1NC(=O)[C@@H](C)NC(=O)[C@@H]2CCCN2C(=O)[C@H](Cc2ccc3ccccc3c2)NC(=O)[C@H](Cc2ccc(O)cc2)NC(=O)[C@H](CCC(N)=O)NC(=O)[C@H](CCCNC(N)=O)NC(=O)[C@@H](NC(=O)CCC(C)C)CSSC[C@@H](C(N)=O)NC(=O)[C@H](CC(C)C)NC1=O [UPAR-147, iHex-[Cys-Cit-Gln-Tyr-2Ni-Pro-ala-Ile-Leu-Cys]-NH2] ({Pentanoyl(4-Me)}-C[Cit]QY[2Nal]P[dA]ILC-NH2; disulfide 1-10) | 12.6 to 31.6 nM | 10 to 100 nM
CCCCC(=O)N[C@H]1CSSC[C@@H](C(N)=O)NC(=O)[C@H](CCC)NC(=O)[C@H]([C@@H](C)CC)NC(=O)[C@@H]2C[C@@H](O)CN2C(=O)[C@@H]2CCCN2C(=O)[C@H](Cc2ccccc2)NC(=O)[C@H](Cc2ccc(NC(=N)N)cc2)NC(=O)[C@H](CCCCNC(=O)CN2CCN(CC(=O)O)CCN(CC(=O)O)CCN(CC(=O)O)CC2)NC(=O)[C@H](CCCNC(N)=O)NC1=O [UPAR-149, Pent-[Cys-Cit-Lys(DOTA)-Guf-Phe-Pro-Hyp-Ile-Nva-Cys]-NH2] (Pentanoyl-C[Cit]K(DOTA)[Phe(4-guanidino)]FP[Hyp]I[Nva]C-NH2; disulfide 1-10) | ≤ 10 nM | < 1.58 nM
CCCCCC(=O)N[C@@H](CC(=O)O)C(=O)N[C@@H](CC(C)C)C(=O)N[C@H]1CSSC[C@@H](C(=O)NCCCOCCOCCOCCCNC(=O)CCC(=O)N[C@@H](CCCCNC(=O)CN2CCN(CC(=O)O)CCN(CC(=O)O)CCN(CC(=O)O)CC2)C(N)=O)NC(=O)[C@H](CC(C)C)NC(=O)[C@H]([C@@H](C)CC)NC(=O)[C@H](C)NC(=O)[C@@H]2CCCN2C(=O)[C@H](Cc2ccccc2)NC(=O)[C@H](Cc2ccc(O)cc2)NC(=O)[C@H](CCSC)NC(=O)[C@H](CCCNC(=N)N)NC1=O [UPAR-150, Hex-Asp-Leu-[Cys-Arg-Met-Tyr-Phe-Pro-Ala-Ile-Leu-Cys]-Ttds-Lys(DOTA)-NH2] (Hexanoyl-DLCRMYFPAILC-X3; disulfide 3-12) | 39.8 to 100 nM | 1.58 to 10 nM
CC[C@H](C)[C@@H]1NC(=O)C2(CCN(C(=O)CN3CCN(CC(=O)O)CCN(CC(=O)O)CCN(CC(=O)O)CC3)CC2)NC(=O)[C@@H]2CCCN2C(=O)[C@H](Cc2ccccc2)NC(=O)[C@H](Cc2ccc(O)cc2)NC(=O)[C@H](CCC(N)=O)NC(=O)[C@H](CCCNC(=N)N)NC(=O)[C@@H](NC(=O)CCC(C)C)CSSC[C@@H](C(N)=O)NC(=O)[C@H](CC(C)C)NC1=O [UPAR-152, iHex-[Cys-Arg-Gln-Tyr-Phe-Pro-Apc(DOTA)-Ile-Leu-Cys]-NH2] ({Pentanoyl(4-Me)}-CRQYFP[Api](DOTA)ILC-NH2; disulfide 1-10) | ≤ 10 nM | < 1.58 nM
CCCCC(=O)N[C@H]1CSSC[C@@H](C(N)=O)NC(=O)[C@H](CCC)NC(=O)[C@H]([C@@H](C)CC)NC(=O)[C@@H]2C[C@@H](O)CN2C(=O)[C@@H]2CCCN2C(=O)[C@H](Cc2ccccc2)NC(=O)[C@H](Cc2ccc(O)cc2)NC(=O)[C@H](CCCCNC(=O)CN2CCN(CC(=O)O)CCN(CC(=O)O)CCN(CC(=O)O)CC2)NC(=O)[C@H](CCCC[N+](C)(C)C)NC1=O [UPAR-153, Pent-[Cys-KMe3-Lys(DOTA)-Tyr-Phe-Pro-Hyp-Ile-Nva-Cys]-NH2] (Pentanoyl-C[Lys(Me3)]K(DOTA)YFP[Hyp]I[Nva]C-NH2; disulfide 1-10) | ≤ 10 nM | < 1.58 nM
CCCCC(=O)N[C@H]1CSSC[C@@H](C(N)=O)NC(=O)[C@H](CCC)NC(=O)[C@H]([C@@H](C)CC)NC(=O)[C@H](CO)NC(=O)[C@@H]2CCCN2C(=O)[C@H](Cc2ccccc2)NC(=O)[C@H](Cc2ccc(O)cc2)NC(=O)[C@H](CCC(N)=O)NC(=O)[C@H](CCCNC(=N)N)NC1=O [UPAR-154, Pent-[Cys-Arg-Gln-Tyr-Phe-Pro-Ser-Ile-Nva-Cys]-NH2] (Pentanoyl-CRQYFPSI[Nva]C-NH2; disulfide 1-10) | ≤ 10 nM | < 1.58 nM
CCCCOC(=O)N[C@H]1CSSC[C@@H](C(N)=O)NC(=O)[C@H](CC(C)C)NC(=O)[C@H]([C@@H](C)CC)NC(=O)[C@@H](C)NC(=O)[C@@H]2CCCN2C(=O)[C@H](Cc2ccccc2)NC(=O)[C@H](Cc2ccc(O)cc2)NC(=O)[C@H](CCC(N)=O)NC(=O)[C@H](CCCNC(N)=O)NC1=O [UPAR-155, Butoc-[Cys-Cit-Gln-Tyr-Phe-Pro-ala-Ile-Leu-Cys]-NH2] (Butoxycarbonyl-C[Cit]QYFP[dA]ILC-NH2; disulfide 1-10) | ≤ 10 nM | < 1.58 nM
CCCCC(=O)N[C@H]1CSSC[C@@H](C(N)=O)NC(=O)[C@](C)(CC(C)C)NC(=O)[C@H]([C@@H](C)CC)NC(=O)[C@@H]2C[C@@H](O)CN2C(=O)[C@@H]2CCCN2C(=O)[C@H](Cc2ccccc2)NC(=O)[C@H](Cc2ccc(O)cc2)NC(=O)[C@H](CCC(N)=O)NC(=O)[C@H](CCCNC(=N)N)NC1=O [UPAR-156, Pent-[Cys-Arg-Gln-Tyr-Phe-Pro-Hyp-Ile-Aml-Cys]-NH2] (Pentanoyl-CRQYFP[Hyp]I[αMeL]C-NH2; disulfide 1-10) | 12.6 to 31.6 nM | 1.58 to 10 nM
CC[C@H](C)[C@@H]1NC(=O)[C@@H](C)NC(=O)[C@@H]2CCCN2C(=O)[C@H](Cc2ccccc2)NC(=O)[C@H](Cc2ccc(O)cc2)NC(=O)[C@H](CCC(N)=O)NC(=O)[C@H](CCCCNC(=O)CN2CCN(CC(=O)O)CCN(CC(=O)O)CCN(CC(=O)O)CC2)NC(=O)[C@@H](NC(=O)CCC(C)C)CSSC[C@@H](C(N)=O)NC(=O)[C@H](CC(C)C)NC1=O [UPAR-157, iHex-[Cys-Lys(DOTA)-Gln-Tyr-Phe-Pro-ala-Ile-Leu-Cys]-NH2] ({Pentanoyl(4-Me)}-CK(DOTA)QYFP[dA]ILC-NH2; disulfide 1-10) | ≤ 10 nM | < 1.58 nM
